Test results from PubChem BioAssay AID1963441 (Molecular Pharmacology Branch, DTP, NCI, 2024).
Values joined by “and” are separate entries in the source; they are usually repeats but may differ in a detail not shown here. Equal entries are not always repeated. Blank lines part the entries; values can stand above or below the compound they belong to.

Tested on: NCI-H1876 complex spheroid growth, % test/control
Experiment: Anticancer human tumor NCI-H1876 cell line growth inhibition [Asc];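 note: compound exposure lasted 7 days starting three days after seeding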;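 for viability, T/C: 100% = DMSO vehicle control wells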
Settings: for viability, T/C: stronger effect = lower value
Outline: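 Concentration series start at each agent's clinical Cmax, or at 10 microM when none is established, and drop in half-log steps; agents are applied alone or together to complex spheroids built with HUVEC and hMSC.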

[1] = curve of first compound, second compound 0.00949 µM
[2] = curve of first compound, second compound 0.03 µM
[3] = curve of first compound, second compound 0.0949 µM
[4] = curve of first compound, second compound 0.3 µM
[5] = curve of first compound, second compound 0.949 µM
[6] = curve of first compound, second compound 3 µM
[7] = second compound 0.00949 µM, first compound 0.00949 µM
[8] = second compound 0.00949 µM, first compound 0.03 µM
[9] = second compound 0.00949 µM, first compound 0.0949 µM
[10] = second compound 0.00949 µM, first compound 0.3 µM
[11] = second compound 0.03 µM, first compound 0.00949 µM
[12] = second compound 0.03 µM, first compound 0.03 µM
[13] = second compound 0.03 µM, first compound 0.0949 µM
[14] = second compound 0.03 µM, first compound 0.3 µM
[15] = second compound 0.0949 µM, first compound 0.00949 µM
[16] = second compound 0.0949 µM, first compound 0.03 µM
[17] = second compound 0.0949 µM, first compound 0.0949 µM
[18] = second compound 0.0949 µM, first compound 0.3 µM
[19] = second compound 0.3 µM, first compound 0.00949 µM
[20] = second compound 0.3 µM, first compound 0.03 µM
[21] = second compound 0.3 µM, first compound 0.0949 µM
[22] = second compound 0.3 µM, first compound 0.3 µM
[23] = second compound 0.949 µM, first compound 0.00949 µM
[24] = second compound 0.949 µM, first compound 0.03 µM
[25] = second compound 0.949 µM, first compound 0.0949 µM
[26] = second compound 0.949 µM, first compound 0.3 µM
[27] = second compound 3 µM, first compound 0.00949 µM
[28] = second compound 3 µM, first compound 0.03 µM
[29] = second compound 3 µM, first compound 0.0949 µM
[30] = second compound 3 µM, first compound 0.3 µM

IC50 [1]: > 0.3 µM | IC50 [2]: > 0.3 µM | IC50 [3]: > 0.3 µM | IC50 [4]: > 0.3 µM | IC50 [5]: > 0.3 µM | IC50 [6]: > 0.3 µM
Structure (SMILES): NC(=O)C(=Cn1cnc(-c2cc(C(F)(F)F)cc(C(F)(F)F)c2)n1)c1cncnc1 + CCN1C(C(=O)NC23CCC(C(=O)O)(CC2)CC3)C(c2cccc(Cl)c2F)C2(C(=O)Nc3cc(Cl)ccc32)C12CCCCC2
viability, T/C (second compound 0.00949 µM, first compound 0.000949 µM): 104% | viability, T/C (second compound 0.00949 µM, first compound 0.003 µM): 102% | viability, T/C [7]: 115% | viability, T/C [8]: 94% | viability, T/C [9]: 100% | viability, T/C [10]: 64.8% | viability, T/C (second compound 0.03 µM, first compound 0.000949 µM): 101% | viability, T/C (second compound 0.03 µM, first compound 0.003 µM): 99.3% | viability, T/C [11]: 96.6% | viability, T/C [12]: 101% | viability, T/C [13]: 96.2% | viability, T/C [14]: 63.7% | viability, T/C (second compound 0.0949 µM, first compound 0.000949 µM): 101% | viability, T/C (second compound 0.0949 µM, first compound 0.003 µM): 102% | viability, T/C [15]: 100% | viability, T/C [16]: 98.5% | viability, T/C [17]: 102% | viability, T/C [18]: 71.2% | viability, T/C (second compound 0.3 µM, first compound 0.000949 µM): 103% | viability, T/C (second compound 0.3 µM, first compound 0.003 µM): 104% | viability, T/C [19]: 103% | viability, T/C [20]: 103% | viability, T/C [21]: 105% | viability, T/C [22]: 69.6% | viability, T/C (second compound 0.949 µM, first compound 0.000949 µM): 124% | viability, T/C (second compound 0.949 µM, first compound 0.003 µM): 104% | viability, T/C [23]: 104% | viability, T/C [24]: 114% | viability, T/C [25]: 101% | viability, T/C [26]: 68.5% | viability, T/C (second compound 3 µM, first compound 0.000949 µM): 109% | viability, T/C (second compound 3 µM, first compound 0.003 µM): 97.4% | viability, T/C [27]: 104% | viability, T/C [28]: 94.8% | viability, T/C [29]: 96.1% | viability, T/C [30]: 55%

IC50 [1]: > 10 µM | IC50 [2]: > 10 µM | IC50 [3]: > 10 µM | IC50 [4]: > 10 µM | IC50 [5]: > 10 µM | IC50 [6]: > 10 µM
Structure (SMILES): C#Cc1c(F)ccc2cc(O)cc(-c3ncc4c(N5CC6CCC(C5)N6)nc(OCC56CCCN5CC(F)C6)nc4c3F)c12 (stereo not drawn) + CCN1C(C(=O)NC23CCC(C(=O)O)(CC2)CC3)C(c2cccc(Cl)c2F)C2(C(=O)Nc3cc(Cl)ccc32)C12CCCCC2
viability, T/C (second compound 0.00949 µM, first compound 0.0316 µM): 89.2% | viability, T/C (second compound 0.00949 µM, first compound 0.1 µM): 97.2% | viability, T/C (second compound 0.00949 µM, first compound 0.316 µM): 98.5% | viability, T/C (second compound 0.00949 µM, first compound 1 µM): 95.6% | viability, T/C (second compound 0.00949 µM, first compound 3.16 µM): 98.1% | viability, T/C (second compound 0.00949 µM, first compound 10 µM): 87.1% | viability, T/C (second compound 0.03 µM, first compound 0.0316 µM): 94.8% | viability, T/C (second compound 0.03 µM, first compound 0.1 µM): 106% | viability, T/C (second compound 0.03 µM, first compound 0.316 µM): 98.5% | viability, T/C (second compound 0.03 µM, first compound 1 µM): 103% | viability, T/C (second compound 0.03 µM, first compound 3.16 µM): 95.3% | viability, T/C (second compound 0.03 µM, first compound 10 µM): 89.8% | viability, T/C (second compound 0.0949 µM, first compound 0.0316 µM): 101% | viability, T/C (second compound 0.0949 µM, first compound 0.1 µM): 112% | viability, T/C (second compound 0.0949 µM, first compound 0.316 µM): 102% | viability, T/C (second compound 0.0949 µM, first compound 1 µM): 97.7% | viability, T/C (second compound 0.0949 µM, first compound 3.16 µM): 96.3% | viability, T/C (second compound 0.0949 µM, first compound 10 µM): 88.4% | viability, T/C (second compound 0.3 µM, first compound 0.0316 µM): 105% | viability, T/C (second compound 0.3 µM, first compound 0.1 µM): 106% | viability, T/C (second compound 0.3 µM, first compound 0.316 µM): 114% | viability, T/C (second compound 0.3 µM, first compound 1 µM): 99.8% | viability, T/C (second compound 0.3 µM, first compound 3.16 µM): 96.5% | viability, T/C (second compound 0.3 µM, first compound 10 µM): 99.5% | viability, T/C (second compound 0.949 µM, first compound 0.0316 µM): 118% | viability, T/C (second compound 0.949 µM, first compound 0.1 µM): 120% | viability, T/C (second compound 0.949 µM, first compound 0.316 µM): 104% | viability, T/C (second compound 0.949 µM, first compound 1 µM): 112% | viability, T/C (second compound 0.949 µM, first compound 3.16 µM): 116% | viability, T/C (second compound 0.949 µM, first compound 10 µM): 95% | viability, T/C (second compound 3 µM, first compound 0.0316 µM): 97.4% | viability, T/C (second compound 3 µM, first compound 0.1 µM): 88% | viability, T/C (second compound 3 µM, first compound 0.316 µM): 85.2% | viability, T/C (second compound 3 µM, first compound 1 µM): 96.9% | viability, T/C (second compound 3 µM, first compound 3.16 µM): 102% | viability, T/C (second compound 3 µM, first compound 10 µM): 79.2%

IC50 [1]: > 3 µM | IC50 [2]: > 3 µM | IC50 [3]: > 3 µM | IC50 [4]: > 3 µM | IC50 [5]: > 3 µM | IC50 [6]: > 3 µM
Structure (SMILES): Cc1nc(N2CCC3(CC2)COC(C)C3N)c(CO)nc1Sc1ccnc(N)c1Cl (stereo not drawn) + CCN1C(C(=O)NC23CCC(C(=O)O)(CC2)CC3)C(c2cccc(Cl)c2F)C2(C(=O)Nc3cc(Cl)ccc32)C12CCCCC2
viability, T/C [7]: 89.1% | viability, T/C [8]: 90% | viability, T/C [9]: 92.1% | viability, T/C [10]: 102% | viability, T/C (second compound 0.00949 µM, first compound 0.949 µM): 91.6% | viability, T/C (second compound 0.00949 µM, first compound 3 µM): 77.5% | viability, T/C [11]: 99.6% | viability, T/C [12]: 104% | viability, T/C [13]: 118% | viability, T/C [14]: 93.5% | viability, T/C (second compound 0.03 µM, first compound 0.949 µM): 92.4% | viability, T/C (second compound 0.03 µM, first compound 3 µM): 80.2% | viability, T/C [15]: 103% | viability, T/C [16]: 113% | viability, T/C [17]: 94.3% | viability, T/C [18]: 92.4% | viability, T/C (second compound 0.0949 µM, first compound 0.949 µM): 93.9% | viability, T/C (second compound 0.0949 µM, first compound 3 µM): 87.3% | viability, T/C [19]: 109% | viability, T/C [20]: 104% | viability, T/C [21]: 93.4% | viability, T/C [22]: 99.5% | viability, T/C (second compound 0.3 µM, first compound 0.949 µM): 88.7% | viability, T/C (second compound 0.3 µM, first compound 3 µM): 88.7% | viability, T/C [23]: 108% | viability, T/C [24]: 106% | viability, T/C [25]: 103% | viability, T/C [26]: 109% | viability, T/C (second compound 0.949 µM, first compound 0.949 µM): 105% | viability, T/C (second compound 0.949 µM, first compound 3 µM): 87% | viability, T/C [27]: 108% | viability, T/C [28]: 97.9% | viability, T/C [29]: 74% | viability, T/C [30]: 90.3% | viability, T/C (second compound 3 µM, first compound 0.949 µM): 90.1% | viability, T/C (second compound 3 µM, first compound 3 µM): 67%

IC50 (curve of compound): > 1 µM
Structure (SMILES): CCN1CCN(Cc2ccc(Nc3ncc(F)c(-c4cc(F)c5nc(C)n(C(C)C)c5c4)n3)nc2)CC1
viability, T/C (compound 0.00316 µM): 101% and 103% and 104% | viability, T/C (compound 0.01 µM): 94.1% and 101% and 89.8% | viability, T/C (compound 0.0316 µM): 97.1% and 101% and 106% | viability, T/C (compound 0.1 µM): 105% and 100% and 106% | viability, T/C (compound 0.316 µM): 114% (2×) and 120% | viability, T/C (compound 1 µM): 126% and 132% and 131%
